In patent US11179306B2, “Use of salicylic acid derivatives as prodesquamating active agent” (L'OREAL, priority 2013, dated 2021):

Tests used:
[1] = system: stratum corneum of viable human skin; assay: Desquamating activity: cohesion of the stratum corneum on excised human skin maintained under survival conditions; format: cell-based; details: for Score (mean ± sd, n = 6), decrease in the cohesion of the stratum corneum / Appearance of the stratum corneum compared with control skin: 5% by weight in ethanol; for Score (mean ± sd, n = 6), decrease in the cohesion of the stratum corneum: 15 μl per 1 cm^2, applied at D0 and D1, histology at D2, score 0 (absence of modification) to 4 (very large decrease with exfoliation), 6 donors; for Appearance of the stratum corneum compared with control skin: morphology comparison; for Decrease in the cohesion of the stratum corneum with respect to the control skin (desquamating effect): at 5%, paired Student test, p<0.05
Procedure: The study is targeted at detecting the desquamating potential of the active agents in simplex solution by observation of the cohesion of the stratum corneum.
The keratolytic effect on excised skin maintained under survival conditions at 5% by weight in ethanol was evaluated. The study was carried out on viable human skin resulting from abdominal or breast reduction plastic surgery (6 donors).
(§1) The protocol consists in applying the test solutions to skin samples maintained under survival conditions. The products tested are applied in a proportion of 15 μl per 1 cm^2 sample and are not rinsed off. Application is carried out twice, at D0 and then, 24 hours later, at D1. The morphology of the stratum corneum is analysed 48 hours after the first application, at D2, on a biopsy.
The solutions applied are the following: • compound A of Example 1, at 5% by weight in ethanol, and • compound B of Example 2, at 5% by weight in ethanol.
By way of comparison, no solution is applied to some samples, referred to as controls.
The histological analysis of the horny layer is carried out on a skin section after staining with hemalaun-eosin (magnification 400).
6 samples were used for each of the tests (control, compound A and compound B). A paired Student test (p<0.05) was carried out in order to evaluate the significance of the difference with respect to the control.

[2] = system: epidermis of viable human skin; assay: Tolerance of the skin: morphology of the epidermis of treated excised human skin; format: cell-based; details: 5% by weight in ethanol, compared with control skin
Procedure: as §1
In order to validate the desquamating properties of the compounds A and B and to evaluate the tolerance of the skin to these treatments, the morphology of a control skin was in addition compared with the morphology of the skin samples treated with A and with B present in a content of 5% by weight in ethanol, according to the protocol described above.

SMILES	Score (mean ± sd, n = 6), decrease in the cohesion of the stratum corneum [1]	Appearance of the stratum corneum compared with control skin [1]	Decrease in the cohesion of the stratum corneum with respect to the control skin (desquamating effect) [1]	Morphology of the epidermis (tolerance of the skin) [2]
O=C(O)CCCCCCCc1cccc(O)c1C(=O)O [Compound B]	1.75 ± 0.2	decrease in the cohesion of the stratum corneum	statistically significant	preservation of the morphology of the epidermis
O=C(O)c1c(O)cccc1CCCCCCCCO [Compound A]	1.85 ± 0.4	decrease in the cohesion of the stratum corneum	statistically significant	preservation of the morphology of the epidermis
